Laboratory results taken from US11352400B2, “PI3K gamma inhibitor peptide for treatment of respiratory system diseases” (Kither Biotech S.r.I., priority 2014, dated 2022).

Columns and labels:
[1] = system: airway hyperreactivity induced by the muscarinic agonist methacholine in healthy mice; assay: Airway hyperreactivity to methacholine in healthy mice; assay type: in vivo, BALB/C mice; conditions: peptide 1.5 μg or equimolar P1, increasing doses of methacholine
[2] = system: cAMP levels in the airways; assay: cAMP extraction and quantification in trachea and lungs of treated mice; assay type: in vivo, BALB/C mice; conditions: intra-tracheal, 1.5 μg/mouse, 30 minutes; vs PBS or P1 control peptide
Protocol: Lungs and trachea were explanted from animals following euthanasia, pulverized in liquid nitrogen and used for cold extraction of cAMP with 6% trichloroacetic acid. Samples were sonicated for 10 seconds and centrifuged at 13000 rpm at 4° C. for 15 minutes. Supernatants were washed four times with five volumes of diethyl ether saturated with water and lyophilized. cAMP content was detected with an Amersham cAMP BioTrak Enzymeimmunoassay System (GE Healthcare Life Sciences, Pittsburgh, USA, product code: RPN225), according to the manufacturer's protocol.
Wild-type BALB/C mice were injected by the intra-tracheal route with 1.5 μg of the Trojan peptide derived from PI3Kγ conjugated to fluorescein or vehicle, in a final volume of 70 μL of PBS. After 30 minutes, animals were anesthetized, the trachea and lungs were insufflated with PBS, extracted and frozen in OCT. Cryosections of 10 microns were obtained with a Leica CM1850 cryostat (Leica Microsystems GmbH, Wetzlar, Germany) and fluorescence was acquired with a Zeiss Observer-Z1, equipped with an Apotome module (Carl Zeiss, Oberkochen, Germany).

CFTR = assay: cAMP-mediated (PKA) phosphorylation of CFTR in NuLi-1 cells; assay type: cell-based, human; conditions: 30 minutes
Protocol: (§1) Human airway epithelial cell lines expressing a wild-type CFTR (NuLi-1) or with the ΔF508 mutation (CuFi-1) were purchased from ATCC (NuLi-1 product code: ATCC® CRL-4011™; CuFi-1 product code: ATCC® CRL-4013™). Cells were cultured in Dulbecco's Modified Eagle Medium (DMEM, Gibco, Carlsbad, Calif.) supplemented with 10% fetal bovine serum (FBS), 30 μg/mL of penicillin, 100 μg/mL of streptomycin and 300 μg/mL hygromycin B (Gibco, Carlsbad, Calif.).
For immunoprecipitation assays, protein extracts were pre-incubated with 30 μL of a 1:1 mixture of protein A or G and sepharose (Amersham Biosciences, Buckinghamshire, UK) and subsequently incubated with 20 μL of a 1:1 mixture of protein A or G and sepharose and […] of primary antibody for each mg of protein, for 2 hours at 4° C. Immune complexes were washed extensively with lysis buffer and used for Western blotting or subjected to measurements of phosphodiesterase activity.
The antibody that recognizes substrates phosphorylated by PKA (P-PKA substrate) was purchased from Cell Signaling Technology (Danvers, Mass., USA; product code: #9621) and the antibody against CFTR clone M3A7 from Millipore (Billerica, Mass., USA; product code: 05-583).

wild-type CFTR = assay: Chloride currents in Ussing chamber, NuLi-1 cells; assay type: cell-based, human; conditions: peptide 10-30 μM, P1 30 μM
Protocol: as §1
(§2) To measure chloride currents in normal and ΔF508 primary human bronchial epithelial cells, cells were cultured on 1.12 cm^2 Snapwell inserts. Filters were mounted in Ussing chambers, and a chloride gradient was applied by incubating the cells in a basolateral high-chloride buffer containing (in mmol/L): 140 NaCl, 5 KCl, 0.36 K2HPO4, 0.44 KH2PO4, 1.3 CaCl2, 0.5 MgCl2, 4.2 NaHCO3, 10 HEPES, and 10 glucose, at pH 7.4 and an apical low-chloride buffer containing (in mmol/L): 133.3 Na-gluconate, 5 K-gluconate, 2.5 NaCl, 0.36 K2HPO4, 0.44 KH2PO4, 5.7 CaCl2, 0.5 MgCl2, 4.2 NaHCO3, 10 HEPES, and 10 mannitol, at pH 7.4. Buffers were aerated with a mixture of 95% O2 and 5% CO2 and the temperature was maintained at 37° C. during the experiment. […] After a stabilization period of 30 minutes, drugs were added at specific times, while the current was continuously recorded.

ΔF508-CFTR = assay: Chloride currents in Ussing chamber, CuFi-1 cells; assay type: cell-based, human; conditions: CuFi-1 cells corrected with VX-809 (20 μM, 24 hours); peptide 10 μM in the presence of VX-770 10 μM
Protocol: as §1, §2

RQIKIWFQNRRMKWKKGKATHRSPGQIHLVQRHPPSEESQAF (fusion peptide comprising SEQ ID No.1 and SEQ ID No.3) [Trojan peptide derived from PI3Kγ]
airway hyperreactivity induced by methacholine (average lung resistance) [1]: significantly attenuated | cAMP levels in the trachea and in the lungs, higher than controls [2]: 30% | CFTR phosphorylation (cAMP-mediated) (CFTR; 25 μM, vs vehicle or P1): significantly higher | cAMP-dependent CFTR phosphorylation induced by a PDE4 inhibitor (CFTR; peptide 25 μM together with Rolipram 10 μM): further enhanced | CFTR-dependent Cl− currents (wild-type CFTR): increased significantly | increase of the CFTR currents over basal activity (ΔF508-CFTR): about 5 fold
